From article PMC12446476 (Nature Communications, 2025)
“And” between values parts separate entries of the source, which are not always exact repeats. Identical values can stand only once.

Test system: N. gonorrhoeae
Experiment: N. gonorrhoeae murine vaginal infection model, efficacy
Format: in vivo, mouse
Conditions: vaginal lavage, individual mice, BID
Experimental: The N. gonorrhoeae female mouse vaginal model[45] was performed in accordance with the Guide for Care and Use of Laboratory Animals[75]. Animal rooms were maintained at a temperature range of 20–24 °C and humidity between 30% and 70%, with 12 h light/dark cycles. Ovariectomized BALB/c female mice (5–6 weeks, BioLASCO Taiwan Co., Ltd.) were treated with estradiol (0.23 mg/mouse) two days before infection and on the day of infection. Ovariectomized mice were used to avoid staging mice before treating them with estradiol. Beginning two days prior to infection and maintained until the end of the study, animals were treated twice daily with streptomycin (1.2 mg/mouse) and vancomycin (0.6 mg/mouse) each via intraperitoneal (IP) injection and received trimethoprim sulfate in the drinking water (0.4 mg/mL) to control vaginal microflora. Animals were anesthetised with pentobarbital (80 mg/kg), the vagina was rinsed with 50 mM HEPES (pH 7.4), and then inoculated with N. gonorrhoeae in pre-warmed PBS (0.02 mL/mouse containing ~1 × 10^5 CFU).
Control groups received either a single IP injection of ceftriaxone or 5% dextrose (vehicle) twice daily. Animals were sacrificed via CO2 asphyxiation at either 2 h (baseline), 26 and/or 50 h post-infection. Vaginal lavage was performed twice with 200 µL GC broth containing 0.05% saponin to recover bacteria. Bacterial burden in the lavage fluids was determined by performing 10-fold serial dilutions and plating on chocolate agar plates. Four strains were assessed using the model; ATCC 700825 is naturally streptomycin-resistant, whereas AR Bank0179-15, AR Bank0181-17 and WHO X-07 are derivatives of AR Bank0179, AR Bank0181 and WHO X, respectively, that were engineered for streptomycin resistance for use in the model.

[1] = N. gonorrhoeae AR Bank0179-15, Debio 1453P 20 mg/kg PO, 48h
[2] = N. gonorrhoeae AR Bank0179-15, Debio 1453P 30 mg/kg PO, 24h
[3] = N. gonorrhoeae AR Bank0179-15, Debio 1453P 30 mg/kg PO, 48h
[4] = N. gonorrhoeae AR Bank0179-15, Debio 1453P 40 mg/kg PO, 24h
[5] = N. gonorrhoeae AR Bank0179-15, Debio 1453P 40 mg/kg PO, 48h
[6] = N. gonorrhoeae AR Bank0179-15, Debio 1453P 80 mg/kg PO, 24h
[7] = N. gonorrhoeae AR Bank0179-15, Debio 1453P 80 mg/kg PO, 48h
[8] = N. gonorrhoeae AR Bank0181-17, Debio 1453P 20 mg/kg PO, 24h
[9] = N. gonorrhoeae AR Bank0181-17, Debio 1453P 30 mg/kg PO, 24h
[10] = N. gonorrhoeae AR Bank0181-17, Debio 1453P 40 mg/kg PO, 24h
[11] = N. gonorrhoeae AR Bank0181-17, Debio 1453P 80 mg/kg PO, 24h
[12] = N. gonorrhoeae ATCC 700825, Debio 1453P 10 mg/kg PO, 24h
[13] = N. gonorrhoeae ATCC 700825, Debio 1453P 20 mg/kg PO, 24h

In the case of Cc1c(CN(C)C(=O)/C=C/c2cnc3c(c2)N[C@H](C)[C@H](OP(=O)([O-])[O-])C(=O)N3)oc2ccccc12.[Na+].[Na+] [Debio 1453 P], the CFU/mL lavage fluid [1] is reported as <5 CFU/mL and 21100 CFU/mL and 105 CFU/mL and 6100 CFU/mL, the “Log10(CFU/mL lavage fluid)” value [1] is reported as <0.70 Log10(CFU/mL lavage fluid) and 4.32 Log10(CFU/mL lavage fluid) and 2.02 Log10(CFU/mL lavage fluid) and 3.79 Log10(CFU/mL lavage fluid) and the CFU/mL lavage fluid [2] is reported as <5 CFU/mL and 545 CFU/mL and 85 CFU/mL and 5500 CFU/mL and 125 CFU/mL. The “Log10(CFU/mL lavage fluid)” value [2] was <0.70 Log10(CFU/mL lavage fluid) and 2.74 Log10(CFU/mL lavage fluid) and 1.93 Log10(CFU/mL lavage fluid) and 3.74 Log10(CFU/mL lavage fluid) and 2.1 Log10(CFU/mL lavage fluid), the CFU/mL lavage fluid [3] was <5 CFU/mL and 205 CFU/mL and the “Log10(CFU/mL lavage fluid)” value [3] was <0.70 Log10(CFU/mL lavage fluid) and 2.31 Log10(CFU/mL lavage fluid). For the same compound, the CFU/mL lavage fluid [4] was 7600 CFU/mL and <5 CFU/mL and 200 CFU/mL and 115 CFU/mL, the “Log10(CFU/mL lavage fluid)” value [4] was 3.88 Log10(CFU/mL lavage fluid) and <0.70 Log10(CFU/mL lavage fluid) and 2.3 Log10(CFU/mL lavage fluid) and 2.06 Log10(CFU/mL lavage fluid) and the CFU/mL lavage fluid [5] was 65 CFU/mL and <5 CFU/mL. The “Log10(CFU/mL lavage fluid)” value [5] was 1.81 Log10(CFU/mL lavage fluid) and <0.70 Log10(CFU/mL lavage fluid), the CFU/mL lavage fluid [6] was under 5 CFU/mL and the “Log10(CFU/mL lavage fluid)” value [6] was <0.70 Log10(CFU/mL lavage fluid). For the same compound, the CFU/mL lavage fluid [7] was under 5 CFU/mL, the “Log10(CFU/mL lavage fluid)” value [7] was <0.70 Log10(CFU/mL lavage fluid) and the CFU/mL lavage fluid [8] was 1880000 CFU/mL and 790000 CFU/mL and 670000 CFU/mL and 810000 CFU/mL and 720000 CFU/mL. For the same compound, the “Log10(CFU/mL lavage fluid)” value [8] was 6.27 Log10(CFU/mL lavage fluid) and 5.9 Log10(CFU/mL lavage fluid) and 5.83 Log10(CFU/mL lavage fluid) and 5.91 Log10(CFU/mL lavage fluid) and 5.86 Log10(CFU/mL lavage fluid), the CFU/mL lavage fluid [9] was 380000 CFU/mL and 1120000 CFU/mL and 11300 CFU/mL and 201000 CFU/mL and 620000 CFU/mL and the “Log10(CFU/mL lavage fluid)” value [9] was 5.58 Log10(CFU/mL lavage fluid) and 6.05 Log10(CFU/mL lavage fluid) and 4.05 Log10(CFU/mL lavage fluid) and 5.3 Log10(CFU/mL lavage fluid) and 5.79 Log10(CFU/mL lavage fluid). The CFU/mL lavage fluid [10] was 11500 CFU/mL and 123000 CFU/mL and 200000 CFU/mL and 830000 CFU/mL and 730000 CFU/mL, the “Log10(CFU/mL lavage fluid)” value [10] was 4.06 Log10(CFU/mL lavage fluid) and 5.09 Log10(CFU/mL lavage fluid) and 5.3 Log10(CFU/mL lavage fluid) and 5.92 Log10(CFU/mL lavage fluid) and 5.86 Log10(CFU/mL lavage fluid) and the CFU/mL lavage fluid [11] was 275 CFU/mL. The “Log10(CFU/mL lavage fluid)” value [11] was 2.44 Log10(CFU/mL lavage fluid), the CFU/mL lavage fluid [12] was 50000 CFU/mL and 21700 CFU/mL and 23000 CFU/mL and 15500 CFU/mL and 490000 CFU/mL and the “Log10(CFU/mL lavage fluid)” value [12] was 4.7 Log10(CFU/mL lavage fluid) and 4.34 Log10(CFU/mL lavage fluid) and 4.36 Log10(CFU/mL lavage fluid) and 4.19 Log10(CFU/mL lavage fluid) and 5.69 Log10(CFU/mL lavage fluid). For the same compound, the CFU/mL lavage fluid [13] was 7500 CFU/mL and 5100 CFU/mL and 204000 CFU/mL and 15100 CFU/mL and the “Log10(CFU/mL lavage fluid)” value [13] was 3.88 Log10(CFU/mL lavage fluid) and 3.71 Log10(CFU/mL lavage fluid) and 5.31 Log10(CFU/mL lavage fluid) and 4.18 Log10(CFU/mL lavage fluid).
